Reference: patent publication EP2070923A1, “Insecticide iminoheterocycles” (priority 2007, dated 2009)
Like-named read-outs stand apart in the source and are kept apart here. One block for each molecule: values may come before it.

Experiments:
logP (HCOOH) = details: hplc, formic acid
Myzus persicae = test: Myzus test (spray treatment); type: in vivo; details: foliar, read-out: Wirkung
Source text: Myzus-Test (Spritzbehandlung)
(§1) Zur Herstellung einer zweckmäßigen Wirkstoffzubereitung vermischt man 1 Gewichtsteil Wirkstoff mit den angegebenen Mengen Lösungsmittel und Emulgator und verdünnt das Konzentrat mit emulgatorhaltigem Wasser auf die gewünschte Konzentration. Chinakohlblattscheiben (Brassica pekinensis), die von allen Stadien der Grünen Pfirsichblattlaus (Myzus persicae) befallen sind, werden mit einer Wirkstoffzubereitung der gewünschten Konzentration gespritzt. Nach der gewünschten Zeit wird die Wirkung in % bestimmt. Dabei bedeutet 100 %, dass alle Blattläuse abgetötet wurden; 0 % bedeutet, dass keine Blattläuse abgetötet wurden. Bei diesem Test zeigen z. B. die folgenden Verbindungen der Herstellungsbeispiele eine Wirkung von ≥ 80 % bei einer Aufwandmenge von 500 g/ha: • Bsp. Nr. 2, 3, 31, 32, 33, 36, 37, 39, 40, 41, 42, 43, 44, 45, 46, 63, 64, 65, 66, 86, 87, 88, 90, 95, 96, 97, 99, 103

physchem = details: hplc, formic acid
Meloidogyne incognita = test: Meloidogyne test (spray treatment), gall formation on lettuce roots; type: in vivo; details: 20 ppm; 100 % = no galls found
Source text: Meloidogyne-Test (Spritzbehandlung)
Zur Herstellung einer zweckmäßigen Wirkstoffzubereitung vermischt man 1 Gewichtsteil Wirkstoff mit der angegebenen Menge Lösungsmittel und verdünnt das Konzentrat mit Wasser auf die gewünschte Konzentration. Gefäße werden mit Sand, Wirkstofflösung, Meloidogyne incognita-Ei-Larven-Suspension und Salatsamen gefüllt. Die Salatsamen keimen und die Pflänzchen entwickeln sich. An den Wurzeln entwickeln sich die Gallen. Nach der gewünschten Zeit wird die nematizide Wirkung an Hand der Gallenbildung in % bestimmt. Dabei bedeutet 100 %, dass keine Gallen gefunden wurden; 0 % bedeutet, dass die Zahl der Gallen an den behandelten Pflanzen der der unbehandelten Kontrolle entspricht. Bei diesem Test zeigen z. B. die folgenden Verbindungen der Herstellungsbeispiele eine Wirkung von ≥ 80 % bei einer Aufwandmenge von 20 ppm: • Bsp. Nr. 15, 16, 18

Boophilus microplus = Boophilus microplus test (injection); type: in vivo; details: 20 µg/Tier; injection into abdomen; 100 % = no tick laid fertile eggs
Source text: Boophilus microplus -Test (Injektion)
Zur Herstellung einer zweckmäßigen Wirkstoffzubereitung vermischt man 1 Gewichtsteil Wirkstoff mit der angegebenen Menge Lösungsmittel und verdünnt das Konzentrat mit Lösungsmittel auf die gewünschte Konzentration. Die Wirkstofflösung wird in das Abdomen (Boophilus microplus) injiziert, die Tiere werden in Schalen überführt und in einem klimatisierten Raum aufbewahrt. Nach der gewünschten Zeit wird die Wirkung in % bestimmt. Dabei bedeutet 100%, dass keine Zecke fertile Eier gelegt hat. Bei diesem Test zeigen z. B. die folgenden Verbindungen der Herstellungsbeispiele eine Wirkung von = 80 % bei einer Aufwandmenge von 20 µg/Tier: • Bsp. Nr. 43, 44, 45, 46, 63, 64, 65, 66

Tetranychus urticae = test: Tetranychus test, OP-resistant (spray treatment); type: in vivo; details: foliar, spray on Phaseolus vulgaris leaf discs, 100 % = all spider mites killed, read-out: Wirkung
Source text: Tetranychus-Test, OP-resistent (Spritzbehandlung)
as §1, with “Bohnenblattscheiben (Phaseolus vulgaris),” for “Chinakohlblattscheiben (Brassica pekinensis),”, “Gemeinen Spinnmilbe (Tetranychus urticae)” for “Grünen Pfirsichblattlaus (Myzus persicae)”, “Spinnmilben” for “Blattläuse”, “100” for “500”, “83” for “2, 3, 31, 32, 33, 36, 37, 39, 40, 41, 42, 43, 44, 45, 46, 63, 64, 65, 66, 86, 87, 88, 90, 95, 96, 97, 99, 103”

[1] = 500 g/ha, spray on Brassica pekinensis leaf discs, 100 % = all aphids killed

SMILES: CCC(N=C1NCCO1)c1ccc(C(F)(F)F)cn1 (centres unmarked) [Beispiel 4]
chromatographic logP (physchem): 0.97

SMILES: CCC(N=C1OCCN1C(=O)NCCCl)c1ccc(C(F)(F)F)cn1 (centres unmarked) [Beispiel 5]
chromatographic logP (logP (HCOOH)): 2.15

SMILES: CCNC(=S)N1CCOC1=NC(CC)c1ccc(C(F)(F)F)cn1 (centres unmarked) [Beispiel 7]
chromatographic logP (logP (HCOOH)): 3.85

SMILES: CCC(N=C1NCCO1)c1ccc(C)c(C)n1 (centres unmarked) [Beispiel 8]
chromatographic logP (physchem): 0.06

SMILES: CCC(N=C1OCCN1C(=O)NCCCl)c1ccc(C)c(C)n1 (centres unmarked) [Beispiel 9]
chromatographic logP (logP (HCOOH)): 1.18

SMILES: CCC(N=C1NCCO1)c1ccccn1 (centres unmarked) [Beispiel 12]
chromatographic logP (physchem): -0.01

SMILES: c1cc(CN=C2NCCO2)cs1 [Beispiel 32]
mortality at 500 g/ha (Myzus persicae; in Brassica rapa): ≥ 80%
chromatographic logP (physchem): -0.05

SMILES: CCNC(=S)N1CCOC1=NCc1ccsc1 [Beispiel 33]
chromatographic logP (logP (HCOOH)): 2.56
mortality at 500 g/ha (Myzus persicae; [1]): ≥ 80%

SMILES: CNC(=S)N1CCOC1=NCc1ccsc1 [Beispiel 35]
chromatographic logP (logP (HCOOH)): 1.83

SMILES: CC(N=C1NCCO1)c1cccs1 (centres unmarked) [Beispiel 36]
mortality at 500 g/ha (Myzus persicae; in Brassica rapa): ≥ 80%
chromatographic logP (physchem): 0.28

SMILES: C[C@H](N=C1NCCO1)c1cccs1 [Beispiel 37]
mortality at 500 g/ha (Myzus persicae; in Brassica rapa): ≥ 80%
chromatographic logP (physchem): 0.33

SMILES: c1csc(CN=C2NCCO2)c1 [Beispiel 39]
mortality at 500 g/ha (Myzus persicae; in Brassica rapa): ≥ 80%
chromatographic logP (physchem): -0.08

SMILES: CNC(=S)N1CCOC1=NCc1cccs1 [Beispiel 40]
chromatographic logP (logP (HCOOH)): 2.45
mortality at 500 g/ha (Myzus persicae; [1]): ≥ 80%

SMILES: CC(N=C1OCCN1C(=S)NCC(F)(F)F)c1cccs1 (centres unmarked) [Beispiel 46]
chromatographic logP (logP (HCOOH)): 3.99
mortality at 500 g/ha (Myzus persicae; [1]): ≥ 80%
Wirkung (Boophilus microplus): 80%

SMILES: C[C@H](N=C1OCCN1C(=S)NCC(F)(F)F)c1cccs1 [Beispiel 66]
chromatographic logP (logP (HCOOH)): 3.98
mortality at 500 g/ha (Myzus persicae; [1]): ≥ 80%
Wirkung (Boophilus microplus): 80%

SMILES: Cn1cccc1CN=C1NCCO1 [Beispiel 80]
chromatographic logP (physchem): -0.09

SMILES: COCCNC(=S)N1CCOC1=NCc1cccn1C [Beispiel 83]
chromatographic logP (logP (HCOOH)): 2.37
mortality at 100 g/ha (Tetranychus urticae): ≥ 80%

SMILES: CCC(N=C1OCCN1C(=S)NC)c1cccs1 (centres unmarked) [Beispiel 86]
chromatographic logP (logP (HCOOH)): 3.46
mortality at 500 g/ha (Myzus persicae; [1]): ≥ 80%

SMILES: c1coc(CN=C2NCCO2)c1 [Beispiel 90]
mortality at 500 g/ha (Myzus persicae; in Brassica rapa): ≥ 80%
chromatographic logP (physchem): -0.23

SMILES: CNC(=S)N1CCOC1=NCc1ccco1 [Beispiel 91]
chromatographic logP (logP (HCOOH)): 1.89

SMILES: CCNC(=S)N1CCOC1=NCc1ccco1 [Beispiel 92]
chromatographic logP (logP (HCOOH)): 2.58

SMILES: FC(F)(F)CNC(=S)N1CCOC1=NCc1ccco1 [Beispiel 94]
chromatographic logP (logP (HCOOH)): 3.29

SMILES: CC(N=C1NCCO1)c1ccco1 (centres unmarked) [Beispiel 95]
mortality at 500 g/ha (Myzus persicae; in Brassica rapa): ≥ 80%

SMILES: C[C@H](N=C1NCCS1)c1cccs1 [Beispiel 101]
chromatographic logP (physchem): 0.54

SMILES: CC(N=C1NCCO1)c1cc2ccccc2o1 (centres unmarked) [Beispiel 103]
mortality at 500 g/ha (Myzus persicae; in Brassica rapa): ≥ 80%
chromatographic logP (physchem): 0.93

SMILES: CNC(=S)N1CCOC1=NC(C)c1cc2ccccc2o1 (centres unmarked) [Beispiel 104]
chromatographic logP (logP (HCOOH)): 3.64

SMILES: CC(N=C1OCCN1C(=S)NCC(F)(F)F)c1cc2ccccc2o1 (centres unmarked) [Beispiel 107]
chromatographic logP (logP (HCOOH)): 4.47

SMILES: CC(C)NC(=S)N1CCOC1=NCc1ccc(Cl)nc1 [Beispiel 187]
chromatographic logP (physchem): 3.14

SMILES: CCOC(=O)CNC(=S)N1CCOC1=NCc1ccc(Cl)nc1 [Beispiel 188]
chromatographic logP (logP (HCOOH)): 2.54

SMILES: CC(N=C1NCCO1)c1ccnc(Cl)c1 (centres unmarked) [Beispiel 194]
chromatographic logP (physchem): 0.02

Second part, led by results:

chromatographic logP (logP (HCOOH)): 1.26
SMILES: CCNC(=S)N1CCO/C1=N/C(C)c1ccccn1 (centres unmarked) [Beispiel 2, (2E)-N-ethyl-2-[(1-pyridin-2-ylethyl)imino]-1,3-oxazolidine-3-carbothioamid]
mortality at 500 g/ha (Myzus persicae; [1]): ≥ 80%

chromatographic logP (logP (HCOOH)): 1.12
SMILES: COCCNC(=S)N1CCOC1=NC(C)c1ccccn1 (centres unmarked) [Beispiel 3]
mortality at 500 g/ha (Myzus persicae; [1]): ≥ 80%

chromatographic logP (logP (HCOOH)): 3.69
SMILES: CCC(N=C1OCCN1C(=S)NCCOC)c1ccc(C(F)(F)F)cn1 (centres unmarked) [Beispiel 6]

chromatographic logP (logP (HCOOH)): 1.14
SMILES: CCNC(=S)N1CCOC1=NC(CC)c1ccc(C)c(C)n1 (centres unmarked) [Beispiel 10]

chromatographic logP (logP (HCOOH)): 1.33
SMILES: CCC(N=C1OCCN1C(=S)NCCOC)c1ccc(C)c(C)n1 (centres unmarked) [Beispiel 11]

chromatographic logP (logP (HCOOH)): 1.53
SMILES: CCNC(=S)N1CCOC1=NC(CC)c1ccccn1 (centres unmarked) [Beispiel 13]

chromatographic logP (logP (HCOOH)): 1.16
SMILES: CCNC(=S)N1CCOC1=NC(C)c1cccnc1 (centres unmarked) [Beispiel 15]
nematizide Wirkung an Hand der Gallenbildung (Meloidogyne incognita): ≥ 80%

chromatographic logP (logP (HCOOH)): 1.07
SMILES: COCCNC(=S)N1CCOC1=NC(C)c1cccnc1 (centres unmarked) [Beispiel 16]
nematizide Wirkung an Hand der Gallenbildung (Meloidogyne incognita): ≥ 80%

chromatographic logP (logP (HCOOH)): 1.07
SMILES: CCNC(=S)N1CCOC1=NC(C)c1ccncc1 (centres unmarked) [Beispiel 18]
nematizide Wirkung an Hand der Gallenbildung (Meloidogyne incognita): ≥ 80%

chromatographic logP (logP (HCOOH)): 1
SMILES: COCCNC(=S)N1CCOC1=NC(C)c1ccncc1 (centres unmarked) [Beispiel 19]

chromatographic logP (logP (HCOOH)): 4.48
SMILES: CCC(N=C1OCCN1C(=S)NCCOC)c1cc(Br)cs1 (centres unmarked) [Beispiel 30]

chromatographic logP (logP (HCOOH)): 4.72
SMILES: CCNC(=S)N1CCOC1=NC(CC)c1cc(Br)cs1 (centres unmarked) [Beispiel 31]
mortality at 500 g/ha (Myzus persicae; [1]): ≥ 80%

chromatographic logP (logP (HCOOH)): 2.71
SMILES: COCCNC(=S)N1CCOC1=NCc1ccsc1 [Beispiel 34]

chromatographic logP (logP (HCOOH)): 2.84
SMILES: COCCNC(=S)N1CCOC1=NCc1cccs1 [Beispiel 42]
mortality at 500 g/ha (Myzus persicae; [1]): ≥ 80%

chromatographic logP (logP (HCOOH)): 2.99
SMILES: CNC(=S)N1CCOC1=NC(C)c1cccs1 (centres unmarked) [Beispiel 43]
mortality at 500 g/ha (Myzus persicae; [1]): ≥ 80%
Wirkung (Boophilus microplus): 80%

chromatographic logP (logP (HCOOH)): 3.58
SMILES: CCNC(=S)N1CCOC1=NC(C)c1cccs1 (centres unmarked) [Beispiel 44]
mortality at 500 g/ha (Myzus persicae; [1]): ≥ 80%
Wirkung (Boophilus microplus): 80%

chromatographic logP (logP (HCOOH)): 3.28
SMILES: COCCNC(=S)N1CCOC1=NC(C)c1cccs1 (centres unmarked) [Beispiel 45]
mortality at 500 g/ha (Myzus persicae; [1]): ≥ 80%
Wirkung (Boophilus microplus): 80%

chromatographic logP (logP (HCOOH)): 3.02
SMILES: CNC(=S)N1CCOC1=N[C@@H](C)c1cccs1 [Beispiel 63]
mortality at 500 g/ha (Myzus persicae; [1]): ≥ 80%
Wirkung (Boophilus microplus): 80%

chromatographic logP (logP (HCOOH)): 3.59
SMILES: CCNC(=S)N1CCOC1=N[C@@H](C)c1cccs1 [Beispiel 64]
mortality at 500 g/ha (Myzus persicae; [1]): ≥ 80%
Wirkung (Boophilus microplus): 80%

chromatographic logP (logP (HCOOH)): 1.45
SMILES: CCn1ccc(C(C)N=C2OCCN2C(=S)NC)n1 (centres unmarked) [Beispiel 76]

chromatographic logP (logP (HCOOH)): 4.06
SMILES: CCNC(=S)N1CCOC1=NC(CC)c1cccs1 (centres unmarked) [Beispiel 87]
mortality at 500 g/ha (Myzus persicae; [1]): ≥ 80%

chromatographic logP (logP (HCOOH)): 3.71
SMILES: CCC(N=C1OCCN1C(=S)NCCOC)c1cccs1 (centres unmarked) [Beispiel 88]
mortality at 500 g/ha (Myzus persicae; [1]): ≥ 80%

chromatographic logP (logP (HCOOH)): 2.84
SMILES: COCCNC(=S)N1CCOC1=NCc1ccco1 [Beispiel 93]

chromatographic logP (logP (HCOOH)): 2.38
SMILES: CNC(=S)N1CCOC1=NC(C)c1ccco1 (centres unmarked) [Beispiel 96]
mortality at 500 g/ha (Myzus persicae; [1]): ≥ 80%

chromatographic logP (logP (HCOOH)): 4.18
SMILES: CCNC(=S)N1CCOC1=NC(C)c1cc2ccccc2o1 (centres unmarked) [Beispiel 105]

chromatographic logP (logP (HCOOH)): 3.9
SMILES: COCCNC(=S)N1CCOC1=NC(C)c1cc2ccccc2o1 (centres unmarked) [Beispiel 106]

chromatographic logP (logP (HCOOH)): 4.96
SMILES: CCNC(=S)N1CCOC1=NC(CC)c1ccc(Cl)s1 (centres unmarked) [Beispiel 108]

chromatographic logP (logP (HCOOH)): 2.58
SMILES: CNC(=S)N1CCOC1=NC(C)c1ccnc(Cl)c1 (centres unmarked) [Beispiel 195]

chromatographic logP (logP (HCOOH)): 3.07
SMILES: CCNC(=S)N1CCOC1=NC(C)c1ccnc(Cl)c1 (centres unmarked) [Beispiel 196]

chromatographic logP (logP (HCOOH)): 2.83
SMILES: COCCNC(=S)N1CCOC1=NC(C)c1ccnc(Cl)c1 (centres unmarked) [Beispiel 197]

chromatographic logP (logP (HCOOH)): 3.14
SMILES: CCOC(=O)CNC(=S)N1CCOC1=NC(C)c1ccnc(Cl)c1 (centres unmarked) [Beispiel 198]
